In series [1] the target is T1, Broad substrate specificity ATP-binding cassette transporter ABCG2 (Homo sapiens, UniProt Q9UNQ0).
T1 sequence (Q9UNQ0 whole entry): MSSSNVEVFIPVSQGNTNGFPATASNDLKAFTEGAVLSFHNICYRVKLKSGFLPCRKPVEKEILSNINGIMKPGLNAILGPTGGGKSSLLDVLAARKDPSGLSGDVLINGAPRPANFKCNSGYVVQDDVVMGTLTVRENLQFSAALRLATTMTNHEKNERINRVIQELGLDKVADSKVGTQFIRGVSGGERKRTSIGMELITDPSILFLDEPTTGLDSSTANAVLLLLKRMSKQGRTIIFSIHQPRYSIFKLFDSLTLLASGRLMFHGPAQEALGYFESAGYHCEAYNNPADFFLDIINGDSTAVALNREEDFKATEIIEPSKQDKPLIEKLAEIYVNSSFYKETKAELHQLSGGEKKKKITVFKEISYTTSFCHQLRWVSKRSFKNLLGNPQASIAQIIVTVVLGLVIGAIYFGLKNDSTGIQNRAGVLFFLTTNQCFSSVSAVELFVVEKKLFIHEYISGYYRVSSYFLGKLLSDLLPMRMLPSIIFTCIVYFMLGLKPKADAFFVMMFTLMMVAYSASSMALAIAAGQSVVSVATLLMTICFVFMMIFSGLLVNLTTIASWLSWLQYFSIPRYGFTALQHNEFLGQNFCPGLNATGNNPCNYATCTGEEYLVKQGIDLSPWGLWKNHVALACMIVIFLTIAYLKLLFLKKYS
Briefly: TP_TRANSPORTER: efflux of Hoechst33342 in BCRP-expressing Sf9 cells. The format is functional.

The target of series [2] is T1, Broad substrate specificity ATP-binding cassette transporter ABCG2. Briefly: TP_TRANSPORTER: stimulation of ATPase activity (0.1~1 u M) in BCRP-expressing Sf9 cells. In kind it is functional, cell membranes, Membrane.

In the case of `CC#CC(=O)Nc1ccc2ncnc(Nc3cccc(Br)c3)c2c1`, the IC50 in series [1] worked out at 0.2 µM. In addition, the Activity entry in series [2] was “inhibitor []”.

Regarding `COc1cc2ncnc(Nc3ccc(F)c(Cl)c3)c2cc1OCCCN1CCOCC1` [GEFITINIB], the Activity result in series [2] is “inhibitor []”.

By IC50 is commonly meant the midpoint of a concentration-inhibition curve. A high value points to weaker potency.

Source of the values: ChEMBL document CHEMBL2074416, “High-affinity interaction of tyrosine kinase inhibitors with the ABCG2 multidrug transporter” (Mol Pharmacol, 2004).
